Assay results reported in PubChem BioAssay AID2060626 (Molecular Pharmacology Branch, DTP, NCI, 2025).
Several values for one entry are separate records, joined by “and”; a condition that tells them apart may be missing. Equal entries are not always repeated.

System: 168753-222-R-J1-PDC complex spheroid viability
Test: Anticancer human tumor 168753-222-R-J1-PDC patient-derived bladder carcinoma cell line growth inhibition [CLK]
Conditions: for IC50: curve of first compound; for viability, T/C: stronger effect = lower value
How it was run: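 Multi-cell-type spheroids combined patient-derived tumor cells with HUVEC endothelial cells and human mesenchymal stem cells. Paired agents were dosed in half-log steps down from about clinical Cmax, or from 10 microM where Cmax was unknown.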

[1] = second compound 0.0316 µM, first compound 0.0316 µM
[2] = second compound 0.0316 µM, first compound 0.1 µM
[3] = second compound 0.0316 µM, first compound 0.316 µM
[4] = second compound 0.0316 µM, first compound 1 µM
[5] = second compound 0.0316 µM, first compound 3.16 µM
[6] = second compound 0.0316 µM, first compound 10 µM
[7] = second compound 0.1 µM, first compound 0.0316 µM
[8] = second compound 0.1 µM, first compound 0.1 µM
[9] = second compound 0.1 µM, first compound 0.316 µM
[10] = second compound 0.1 µM, first compound 1 µM
[11] = second compound 0.1 µM, first compound 3.16 µM
[12] = second compound 0.1 µM, first compound 10 µM
[13] = second compound 0.316 µM, first compound 0.0316 µM
[14] = second compound 0.316 µM, first compound 0.1 µM
[15] = second compound 0.316 µM, first compound 0.316 µM
[16] = second compound 0.316 µM, first compound 1 µM
[17] = second compound 0.316 µM, first compound 3.16 µM
[18] = second compound 0.316 µM, first compound 10 µM
[19] = second compound 1 µM, first compound 0.0316 µM
[20] = second compound 1 µM, first compound 0.1 µM
[21] = second compound 1 µM, first compound 0.316 µM
[22] = second compound 1 µM, first compound 1 µM
[23] = second compound 1 µM, first compound 3.16 µM
[24] = second compound 1 µM, first compound 10 µM
[25] = second compound 3.16 µM, first compound 0.0316 µM
[26] = second compound 3.16 µM, first compound 0.1 µM
[27] = second compound 3.16 µM, first compound 0.316 µM
[28] = second compound 3.16 µM, first compound 1 µM
[29] = second compound 3.16 µM, first compound 3.16 µM
[30] = second compound 3.16 µM, first compound 10 µM
[31] = second compound 10 µM, first compound 0.0316 µM
[32] = second compound 10 µM, first compound 0.1 µM
[33] = second compound 10 µM, first compound 0.316 µM
[34] = second compound 10 µM, first compound 1 µM
[35] = second compound 10 µM, first compound 3.16 µM
[36] = second compound 10 µM, first compound 10 µM
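Note: viability measured after seven days of drug exposure.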
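Throughout, for viability, T/C: luminescence signal used as surrogate for viable cell amount; 100% = DMSO vehicle control wells.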

CC(Nc1ccc2c(c1)OCCn1cc(N3C(=O)OCC3C(F)F)nc1-2)C(N)=O (stereo not drawn) + CNC(=O)c1ccc(Nc2nc(OC3CCCC3)c3c(-c4ccc5nc(C)oc5c4)c[nH]c3n2)c(OC)c1
IC50 (second compound 0.0316 µM): 161 nM | IC50 (second compound 0.1 µM): 133 nM | IC50 (second compound 0.316 µM): 45.8 nM | IC50 (second compound 1 µM): < 31.6 nM | IC50 (second compound 3.16 µM): < 31.6 nM | IC50 (second compound 10 µM): < 31.6 nM | viability, T/C [1]: 93.1% | viability, T/C [2]: 71% | viability, T/C [3]: 20.2% | viability, T/C [4]: 15.5% | viability, T/C [5]: 13.3% | viability, T/C [6]: 13% | viability, T/C [7]: 83.7% | viability, T/C [8]: 60.5% | viability, T/C [9]: 18.3% | viability, T/C [10]: 14.3% | viability, T/C [11]: 13.5% | viability, T/C [12]: 11.6% | viability, T/C [13]: 62.5% | viability, T/C [14]: 23.5% | viability, T/C [15]: 15% | viability, T/C [16]: 9.68% | viability, T/C [17]: 9.36% | viability, T/C [18]: 9.19% | viability, T/C [19]: 24.3% | viability, T/C [20]: 13.5% | viability, T/C [21]: 6.89% | viability, T/C [22]: 2.64% | viability, T/C [23]: 1.07% | viability, T/C [24]: 2.28% | viability, T/C [25]: 14.9% | viability, T/C [26]: 10.1% | viability, T/C [27]: 3.74% | viability, T/C [28]: 0.82% | viability, T/C [29]: 1.82% | viability, T/C [30]: 3.99% | viability, T/C [31]: 12.8% | viability, T/C [32]: 9.3% | viability, T/C [33]: 3.4% | viability, T/C [34]: 0.76% | viability, T/C [35]: 0.78% | viability, T/C [36]: 1.14%

CCN1CCN(Cc2ccc(Nc3ncc(F)c(-c4cc(F)c5nc(C)n(C(C)C)c5c4)n3)nc2)CC1
viability, T/C (compound 0.00316 µM): 97.4% and 95.4% | viability, T/C (compound 0.01 µM): 80.3% and 94% | viability, T/C (compound 0.0316 µM): 37.7% and 78.4% | viability, T/C (compound 0.1 µM): 44.1% and 77.1% | viability, T/C (compound 0.316 µM): 25.1% and 68.1% | viability, T/C (compound 1 µM): 36.4% and 64.2%

CCCS(=O)(=O)Nc1ccc(F)c(C(=O)c2c[nH]c3ncc(-c4ccc(Cl)cc4)cc23)c1F + CN1CCN(c2cc(C(=O)Nc3cc4cc(-c5cnn(C)c5)ccc4cn3)ccn2)CC1
IC50 (second compound 0.0316 µM): > 10000 nM | IC50 (second compound 0.1 µM): 7830 nM | IC50 (second compound 0.316 µM): < 31.6 nM | IC50 (second compound 1 µM): < 31.6 nM | IC50 (second compound 3.16 µM): < 31.6 nM | IC50 (second compound 10 µM): < 31.6 nM | viability, T/C [1]: 96.7% | viability, T/C [2]: 116% | viability, T/C [3]: 112% | viability, T/C [4]: 122% | viability, T/C [5]: 112% | viability, T/C [6]: 59.5% | viability, T/C [7]: 80.1% | viability, T/C [8]: 94.7% | viability, T/C [9]: 58.3% | viability, T/C [10]: 88.5% | viability, T/C [11]: 86.5% | viability, T/C [12]: 41.5% | viability, T/C [13]: 15.8% | viability, T/C [14]: 17.8% | viability, T/C [15]: 16% | viability, T/C [16]: 14.7% | viability, T/C [17]: 20.1% | viability, T/C [18]: 22.1% | viability, T/C [19]: 0.38% | viability, T/C [20]: 0.46% | viability, T/C [21]: 0.31% | viability, T/C [22]: 0.33% | viability, T/C [23]: 0.96% | viability, T/C [24]: 2.48% | viability, T/C [25]: 0.11% | viability, T/C [26]: 1.81% | viability, T/C [27]: 0.12% | viability, T/C [28]: 0.11% | viability, T/C [29]: 2.3% | viability, T/C [30]: 1.36% | viability, T/C [31]: 0.16% | viability, T/C [32]: 2.21% | viability, T/C [33]: 0.61% | viability, T/C [34]: 0.3% | viability, T/C [35]: 3.61% | viability, T/C [36]: 3.12%

COC1C=CCC(C)C(C)S(=O)(=O)NC(=O)c2ccc3c(c2)N(CC2CCC21)CC1(CCCc2cc(Cl)ccc21)CO3 (stereo not drawn) + CN1CCN(c2cc(C(=O)Nc3cc4cc(-c5cnn(C)c5)ccc4cn3)ccn2)CC1
IC50 (second compound 0.0316 µM): 936 nM | IC50 (second compound 0.1 µM): 191 nM | IC50 (second compound 0.316 µM): < 31.6 nM | IC50 (second compound 1 µM): < 31.6 nM | IC50 (second compound 3.16 µM): < 31.6 nM | IC50 (second compound 10 µM): < 31.6 nM | viability, T/C [1]: 77.2% | viability, T/C [2]: 101% | viability, T/C [3]: 68.9% | viability, T/C [4]: 48.4% | viability, T/C [5]: 27.6% | viability, T/C [6]: 14.2% | viability, T/C [7]: 67.5% | viability, T/C [8]: 58.4% | viability, T/C [9]: 43.9% | viability, T/C [10]: 21.8% | viability, T/C [11]: 18% | viability, T/C [12]: 12.6% | viability, T/C [13]: 17.1% | viability, T/C [14]: 12.4% | viability, T/C [15]: 13.3% | viability, T/C [16]: 8.91% | viability, T/C [17]: 9.07% | viability, T/C [18]: 3.48% | viability, T/C [19]: 0.33% | viability, T/C [20]: 3.47% | viability, T/C [21]: 0.21% | viability, T/C [22]: 0.82% | viability, T/C [23]: 2.3% | viability, T/C [24]: 1.79% | viability, T/C [25]: 0.17% | viability, T/C [26]: 0.15% | viability, T/C [27]: 3.67% | viability, T/C [28]: 0.12% | viability, T/C [29]: 0.15% | viability, T/C [30]: 0.59% | viability, T/C [31]: 0.4% | viability, T/C [32]: 0.21% | viability, T/C [33]: 2.52% | viability, T/C [34]: 0.21% | viability, T/C [35]: 0.23% | viability, T/C [36]: 1.62%

NC(=O)C(=Cn1cnc(-c2cc(C(F)(F)F)cc(C(F)(F)F)c2)n1)c1cncnc1
viability, T/C (compound 0.00949 µM): 102% and 101% | viability, T/C (compound 0.03 µM): 76% and 95.7% | viability, T/C (compound 0.0949 µM): 52.8% and 83.2% | viability, T/C (compound 0.3 µM): 48.1% and 84.1% | viability, T/C (compound 0.949 µM): 41.1% and 68.7% | viability, T/C (compound 3 µM): 26.5% and 52%
